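Results reflect a 48-hour exposure of cells in 96-well plates to compound at five concentrations. TGI marks complete inhibition of growth.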
Tests used:
Assay in all cases: DTP human tumour cell line panel, 48 h
786-0 renal = test system: 786-0 renal
A498 renal = test system: A498 renal
A549 NSCLC = test system: A549 NSCLC
ACHN renal = test system: ACHN renal
BT-549 breast = test system: BT-549 breast
CAKI-1 renal = test system: CAKI-1 renal
CCRF-CEM leukemia = test system: CCRF-CEM leukemia
COLO 205 colon = test system: COLO 205 colon
DU-145 prostate = test system: DU-145 prostate
EKVX NSCLC = test system: EKVX NSCLC
HCT-116 colon = test system: HCT-116 colon
HCT-15 colon = test system: HCT-15 colon
HL-60(TB) leukemia = test system: HL-60(TB) leukemia
HOP-62 NSCLC = test system: HOP-62 NSCLC
HOP-92 NSCLC = test system: HOP-92 NSCLC
HS 578T breast = test system: HS 578T breast
HT29 colon = test system: HT29 colon
IGROV1 ovarian = test system: IGROV1 ovarian
K-562 leukemia = test system: K-562 leukemia
KM12 colon = test system: KM12 colon
LOX IMVI melanoma = test system: LOX IMVI melanoma
M14 melanoma = test system: M14 melanoma
MALME-3M melanoma = test system: MALME-3M melanoma
MCF7 breast = test system: MCF7 breast
MDA-MB-231 breast = test system: MDA-MB-231 breast
MDA-MB-435 = test system: MDA-MB-435
MDA-N = test system: MDA-N
MOLT-4 leukemia = test system: MOLT-4 leukemia
NCI-H226 lung = test system: NCI-H226 lung
NCI-H23 lung = test system: NCI-H23 lung
NCI-H460 lung = test system: NCI-H460 lung
NCI-H522 lung = test system: NCI-H522 lung
NCI/ADR-RES ovarian = test system: NCI/ADR-RES ovarian
OVCAR-3 ovarian = test system: OVCAR-3 ovarian
OVCAR-4 ovarian = test system: OVCAR-4 ovarian
OVCAR-5 ovarian = test system: OVCAR-5 ovarian
OVCAR-8 ovarian = test system: OVCAR-8 ovarian
PC-3 prostate = test system: PC-3 prostate
RPMI-8226 leukemia = test system: RPMI-8226 leukemia
RXF 393 renal = test system: RXF 393 renal
SF-268 CNS = test system: SF-268 CNS
SF-295 CNS = test system: SF-295 CNS
SF-539 CNS = test system: SF-539 CNS
SK-MEL-2 melanoma = test system: SK-MEL-2 melanoma
SK-MEL-28 melanoma = test system: SK-MEL-28 melanoma
SK-MEL-5 melanoma = test system: SK-MEL-5 melanoma
SK-OV-3 ovarian = test system: SK-OV-3 ovarian
SN12C renal = test system: SN12C renal
SNB-19 CNS = test system: SNB-19 CNS
SNB-75 CNS = test system: SNB-75 CNS
SR leukemia = test system: SR leukemia
SW-620 colon = test system: SW-620 colon
T-47D breast = test system: T-47D breast
TK-10 renal = test system: TK-10 renal
U251 CNS = test system: U251 CNS
UACC-257 melanoma = test system: UACC-257 melanoma
UACC-62 melanoma = test system: UACC-62 melanoma
UO-31 renal = test system: UO-31 renal

`COC(=O)CC[C@@H](C)[C@H]1CC[C@H]2[C@@H]3CC[C@@H]4C[C@H](O)CC[C@]4(C)[C@H]3CC[C@]12C` gave a TGI (786-0 renal) of 33.8 µM, a TGI (A498 renal) of 35.1 µM and a TGI (A549 NSCLC) of 36.6 µM. It also gave a TGI (ACHN renal) of 39.8 µM, a TGI (BT-549 breast) of 33.8 µM and a TGI (CAKI-1 renal) of 34.1 µM. The TGI (CCRF-CEM leukemia) was 46.4 µM, the TGI (COLO 205 colon) was 35.4 µM and the TGI (DU-145 prostate) was 32.6 µM. The TGI (EKVX NSCLC) was 35.6 µM, the TGI (HCT-116 colon) was 31.8 µM and the TGI (HCT-15 colon) was 33.7 µM. It also gave a TGI (HL-60(TB) leukemia) of 35.5 µM, a TGI (HOP-62 NSCLC) of 35.5 µM and a TGI (HOP-92 NSCLC) of 27.8 µM. It also gave a TGI (HS 578T breast) of 55.8 µM, a TGI (HT29 colon) of 31.9 µM and a TGI (IGROV1 ovarian) of 35.4 µM. The TGI (K-562 leukemia) was 65.7 µM, the TGI (KM12 colon) was 34.5 µM and the TGI (LOX IMVI melanoma) was 35.7 µM. For the same molecule, the TGI (M14 melanoma) was 35.8 µM, the TGI (MALME-3M melanoma) was 34.8 µM and the TGI (MCF7 breast) was 36.3 µM. For the same molecule, the TGI (MDA-MB-231 breast) was 34.2 µM, the TGI (MDA-MB-435) was 33 µM and the TGI (MDA-N) was 35.6 µM. The TGI (MOLT-4 leukemia) was 40.7 µM, the TGI (NCI-H226 lung) was 36.6 µM and the TGI (NCI-H23 lung) was 32.9 µM. The TGI (NCI-H460 lung) was 39.9 µM, the TGI (NCI-H522 lung) was 46.8 µM and the TGI (NCI/ADR-RES ovarian) was 43.6 µM. The TGI (OVCAR-3 ovarian) was 35 µM, the TGI (OVCAR-4 ovarian) was 36.5 µM and the TGI (OVCAR-5 ovarian) was 35.6 µM. For the same molecule, the TGI (OVCAR-8 ovarian) was 38.2 µM, the TGI (PC-3 prostate) was 32.2 µM and the TGI (RPMI-8226 leukemia) was > 100 µM. The TGI (RXF 393 renal) was 33 µM, the TGI (SF-268 CNS) was 43.2 µM and the TGI (SF-295 CNS) was 33.9 µM. It also gave a TGI (SF-539 CNS) of 36 µM, a TGI (SK-MEL-2 melanoma) of 34.2 µM and a TGI (SK-MEL-28 melanoma) of 35.6 µM. It also gave a TGI (SK-MEL-5 melanoma) of 31 µM, a TGI (SK-OV-3 ovarian) of 49.9 µM and a TGI (SN12C renal) of 33.2 µM. The TGI (SNB-19 CNS) was 44.9 µM, the TGI (SNB-75 CNS) was 36.1 µM and the TGI (SR leukemia) was 52.1 µM. The TGI (SW-620 colon) was > 100 µM, the TGI (T-47D breast) was 36 µM and the TGI (TK-10 renal) was 37.4 µM. The TGI (U251 CNS) was 43.2 µM, the TGI (UACC-257 melanoma) was 29.5 µM and the TGI (UACC-62 melanoma) was 34.3 µM. It also gave a TGI (UO-31 renal) of 34.9 µM.
`CC1CN(c2cc3c(cc2F)c(=O)c(C(=O)O)cn3-c2ccc(N3CCN(C)CC3)cn2)CC(C)N1` (stereo unspecified) was tested, and the TGI (786-0 renal) was > 100 µM, the TGI (A498 renal) was > 100 µM and the TGI (A549 NSCLC) was > 100 µM. For the same molecule, the TGI (BT-549 breast) was > 100 µM, the TGI (CAKI-1 renal) was > 100 µM and the TGI (CCRF-CEM leukemia) was > 100 µM. For the same molecule, the TGI (COLO 205 colon) was > 100 µM, the TGI (DU-145 prostate) was > 100 µM and the TGI (EKVX NSCLC) was > 100 µM. For the same molecule, the TGI (HCT-116 colon) was > 100 µM, the TGI (HCT-15 colon) was > 100 µM and the TGI (HL-60(TB) leukemia) was > 100 µM. The TGI (HOP-62 NSCLC) was > 100 µM, the TGI (HOP-92 NSCLC) was > 100 µM and the TGI (HS 578T breast) was > 100 µM. For the same molecule, the TGI (HT29 colon) was > 100 µM, the TGI (IGROV1 ovarian) was > 100 µM and the TGI (K-562 leukemia) was > 100 µM. For the same molecule, the TGI (KM12 colon) was > 100 µM, the TGI (M14 melanoma) was > 100 µM and the TGI (MALME-3M melanoma) was > 100 µM. The TGI (MCF7 breast) was > 100 µM, the TGI (MDA-MB-231 breast) was > 100 µM and the TGI (MDA-MB-435) was > 100 µM. The TGI (MDA-N) was > 100 µM, the TGI (MOLT-4 leukemia) was > 100 µM and the TGI (NCI-H226 lung) was > 100 µM. The TGI (NCI-H23 lung) was > 100 µM, the TGI (NCI-H460 lung) was > 100 µM and the TGI (NCI/ADR-RES ovarian) was > 100 µM. For the same molecule, the TGI (OVCAR-3 ovarian) was > 100 µM, the TGI (OVCAR-4 ovarian) was > 100 µM and the TGI (OVCAR-5 ovarian) was > 100 µM. For the same molecule, the TGI (OVCAR-8 ovarian) was > 100 µM, the TGI (PC-3 prostate) was > 100 µM and the TGI (RPMI-8226 leukemia) was > 100 µM. For the same molecule, the TGI (RXF 393 renal) was > 100 µM, the TGI (SF-268 CNS) was > 100 µM and the TGI (SF-295 CNS) was > 100 µM. The TGI (SF-539 CNS) was > 100 µM, the TGI (SK-MEL-28 melanoma) was > 100 µM and the TGI (SK-OV-3 ovarian) was > 100 µM. The TGI (SN12C renal) was > 100 µM, the TGI (SNB-19 CNS) was > 100 µM and the TGI (SNB-75 CNS) was > 100 µM. For the same molecule, the TGI (SR leukemia) was > 100 µM, the TGI (SW-620 colon) was > 100 µM and the TGI (T-47D breast) was > 100 µM. The TGI (TK-10 renal) was > 100 µM, the TGI (U251 CNS) was > 100 µM and the TGI (UACC-257 melanoma) was > 100 µM. For the same molecule, the TGI (UACC-62 melanoma) was > 100 µM and the TGI (UO-31 renal) was > 100 µM.
